In patent US20090275574A1, “NOVEL COMPOUNDS-300” (ASTRAZENECA AB, priority 2008, published 2009):

Tests used:
[1] = target: T1, hM3 (human Muscarinic receptor subtype 3) (Homo sapiens, UniProt P20309); test: Human M3 calcium mobilization FLIPR assay; format: cell-based; settings: hM3 expressed in CHO cells, intracellular Ca2+ release (FLIPR)
T1 construct: expressed in transfected cells; host or cells: CHO cells (ATCC)
Method: Human M1, rat M1, Human M3 and Human M5 Calcium Mobilization FLIPR™ Assay The compound activity in the present invention (EC50 or IC50) is measured using a 384 plate-based imaging assay that monitors drug induced intracellular Ca^2+ release in whole cells. Activation of hM1 (human Muscarinic receptor subtype 1, gene bank access NM_000738), rM1 (rat Muscarinic receptor subtype 1, gene bank access NM_080773), hM3 (human Muscarinic receptor subtype 3, gene bank access NM_000740NM_000740) and hM5 (human Muscarinic receptor subtype 5, gene bank access NM_0121258), receptors expressed in CHO cells (Chinese hamster ovary cells, ATCC) is quantified in a Molecular Devices FLIPR IITM instrument as an increase in fluorescent signal. Inhibition of hM3 and hM5 by compounds is determined by the decrease in fluorescent signal in response to 2 nM acetylcholine activation. […] Prior to experiment, the cell culture medium is removed from the plates by inversion. […] Plates are incubated at 37° C. for 60 minutes prior to start the experiment. The incubation is terminated by washing the cells four times in assay buffer, leaving a residual 25 μl buffer per well. Cell plates are then transferred to the FLIPR, ready for compound additions. The day of experiment, acetylcholine and compounds are diluted in assay buffer in three-fold concentration range (10 points serial dilution) for addition by FLIPR instrument. For all calcium assays, a baseline reading is taken for 10 seconds followed by the addition of 12.5 μl of compounds, resulting in a total well volume of 37.5 μl. Data is collected every second for 60 pictures and then every 6 seconds for 20 pictures prior to the addition of agonist. For hM3 and hM5, before agonist addition, a second baseline reading is taken for 10 seconds followed by the addition of 12.5 μl of agonist or buffer, producing a final volume of 50 μl. After agonist stimulation, the FLIPR continues to collect data every second for 60 pictures and then every 6 seconds for 20 pictures. The fluorescence emission is read using filter 1 (emission 510-570 nm) by the FLIPR on board CCD camera. Calcium mobilization output data are calculated as the maximal relative fluorescence unit (RFU) minus the minimal value for both compound and agonist reading frame (except for hM1 and rM1 using only the maximal RFU). Data are analyzed using sigmoidal fits of a non-linear curve-fitting program (XLfit version 4.2.2 Excel add-in version 4.2.2 build 18 math 1Q version 2.1.2 build 18). All pEC50 and pIC50 values are reported as arithmetic means±standard error of mean of ‘n’ independent experiments.

cloned human M2 receptor = target: T2, cloned human M2 receptor (Homo sapiens, UniProt P08172); test: hM2 receptor GTPγS binding; format: biochemical; settings: CHO membranes expressing hM2, [35S]GTPγS binding
T2 construct: purchased Perkin-Elmer RBHM2M; host or cells: Chinese hamster ovary cells (CHO), membranes
T2 sequence (P08172 1-466): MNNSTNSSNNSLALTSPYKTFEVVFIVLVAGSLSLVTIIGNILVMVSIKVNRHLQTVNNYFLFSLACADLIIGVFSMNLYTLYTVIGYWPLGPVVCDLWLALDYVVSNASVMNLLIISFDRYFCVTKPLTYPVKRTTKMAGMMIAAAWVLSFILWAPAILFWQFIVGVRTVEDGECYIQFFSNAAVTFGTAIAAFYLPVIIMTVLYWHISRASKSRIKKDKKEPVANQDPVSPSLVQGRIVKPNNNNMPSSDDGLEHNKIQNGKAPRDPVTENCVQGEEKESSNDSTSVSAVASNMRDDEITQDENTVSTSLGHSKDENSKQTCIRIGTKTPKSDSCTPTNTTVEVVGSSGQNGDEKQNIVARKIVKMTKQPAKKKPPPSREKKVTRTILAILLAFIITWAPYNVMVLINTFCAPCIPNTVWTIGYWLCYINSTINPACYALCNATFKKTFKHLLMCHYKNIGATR
Method: hM2 Receptor GTPγS Binding Membranes produced from Chinese hamster ovary cells (CHO) expressing the cloned human M2 receptor (human Muscarinic receptor subtype 2, gene bank access NM_000739), are obtained from Perkin-Elmer (RBHM2M). The membranes are thawed at 37° C., passed 3 times through a 23-gauge blunt-end needle, diluted in the GTPγS binding buffer (50 mM Hepes, 20 mM NaOH, 100 mM NaCl, 1 mM EDTA, 5 mM MgCl2, pH 7.4, 100 μM DTT). The EC50, IC50 and Emax of the compounds of the invention are evaluated from 10-point dose-response curves (three fold concentration range) done in 60 μl in 384-well non-specific binding surface plate (Corning). Ten microliters from the dose-response curves plate (5× concentration) are transferred to another 384 well plate containing 25 μl of the following: 5 μg of hM2 membranes, 500 μg of Flashblue beads (Perkin-Elmer) and GDP 25 μM. An additional 15 μl containing 3.3× (60,000 dpm) of GTPγ^35S (0.4 nM final) are added to the wells resulting in a total well volume of 50 μl. Basal and maximal stimulated [^35S]GTPγS binding are determined in absence and presence of 30 μM final of acetylcholine agonist. The membranes/beads mix are pre-incubated for 15 minutes at room temperature with 25 μM GDP prior to distribution in plates (12.5 μM final). The reversal of acetylcholine-induced stimulation (2 μM final) of [^35S]GTPγS binding is used to assay the antagonist properties (IC50) of the compounds. The plates are incubated for 60 minutes at room temperature then centrifuged at 400 rpm for 5 minutes. The radioactivity (cpm) is counted in a Trilux (Perkin-Elmer). Values of EC50, IC50 and Emax are obtained using sigmoidal fits of a non-linear curve-fitting program (XLfit version 4.2.2 Excel add-in version 4.2.2 build 18 math 1Q version 2.1.2 build 18) of percent stimulated [^35S]GTPγS binding vs. log(molar ligand). All pEC50 and pIC50 values are reported as arithmetic means±standard error of mean of ‘n’ independent experiments.

T1 sequence (P20309 whole entry): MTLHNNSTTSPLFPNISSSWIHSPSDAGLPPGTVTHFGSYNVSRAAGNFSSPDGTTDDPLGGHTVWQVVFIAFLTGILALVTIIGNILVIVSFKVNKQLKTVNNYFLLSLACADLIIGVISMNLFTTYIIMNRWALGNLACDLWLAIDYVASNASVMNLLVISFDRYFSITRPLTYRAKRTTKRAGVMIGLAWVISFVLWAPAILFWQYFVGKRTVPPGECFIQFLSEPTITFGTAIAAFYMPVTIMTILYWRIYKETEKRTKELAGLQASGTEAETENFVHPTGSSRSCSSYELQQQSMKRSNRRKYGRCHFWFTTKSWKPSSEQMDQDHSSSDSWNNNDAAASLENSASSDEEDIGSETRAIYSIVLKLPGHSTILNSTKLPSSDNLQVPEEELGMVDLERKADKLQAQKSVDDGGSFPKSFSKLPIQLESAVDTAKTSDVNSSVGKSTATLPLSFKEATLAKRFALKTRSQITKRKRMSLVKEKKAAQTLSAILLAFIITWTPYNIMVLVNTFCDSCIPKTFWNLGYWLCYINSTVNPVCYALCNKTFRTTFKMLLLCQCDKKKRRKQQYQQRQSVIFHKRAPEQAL

Row | SMILES | EC50 [1] [µM] | EC50 (cloned human M2 receptor) [µM]
1 | CCOCC1CCC(N2CCC(N3C(=O)NC[C@H]4CCCC[C@@H]43)CC2)CC1 (mixture of isomers) [Example 08, (4aR,8aS)-1-(1-(4-(ethoxymethyl)cyclohexyl)piperidin-4-yl)octahydroquinazolin-2(1H)-one] | 1.1 | 0.35
2 | CC(C)OCC1CCC(N2CCC(N3C(=O)CO[C@H]4CCCC[C@@H]43)CC2)CC1 (mixture of isomers) [Example 15, (4aS,8aS)-4-(1-(4-(isopropoxymethyl)cyclohexyl)piperidin-4-yl)hexahydro-2H-benzo[b][1,4]oxazin-3(4H)-one] | > 40 | 3.5
3 | CCCOCC1CCC(N2CCC(N3C(=O)NC[C@H]4CCCC[C@@H]43)CC2)CC1 (single isomer, unassigned) [Example 01] | > 40 | 7.7
4 | CCCOCC1CCC(N2CCC(N3C(=O)NC[C@H]4CCCC[C@@H]43)CC2)CC1 (single isomer, unassigned) [Example 02] | 1.6 | 0.24
5 | CC(C)OCC1CCC(N2CCC(N3C(=O)NC[C@H]4CCCC[C@@H]43)CC2)CC1 (single isomer, unassigned) [Example 04] | 5.1 | 0.66
6 | CCCOC1CCC(N2CCC(N3C(=O)NC[C@H]4CCCC[C@@H]43)CC2)CC1 (single isomer, unassigned) [Example 06] |  | 2.5
7 | CC(C)OCC1CCC(N2CCC(N3C(=O)CO[C@H]4CCCC[C@@H]43)CC2)CC1 (single isomer, unassigned) [Example 18] | > 40 | 3.5
8 | CC(C)OCC1CCC(N2CCC(N3C(=O)CO[C@H]4CCCC[C@@H]43)CC2)CC1 (single isomer, unassigned) [Example 19] | > 40 | 8.7
9 | CC(C)OCC1CCC(N2CCC(N3C(=O)CO[C@H]4CCC(F)(F)C[C@@H]43)CC2)CC1 (single isomer, unassigned) [Example 37] | > 40 | > 13
10 | CC(C)OCC1CCC(N2CCC(N3C(=O)CO[C@H]4CCC(F)(F)C[C@@H]43)CC2)CC1 (single isomer, unassigned) [Example 38] | > 40 | > 10
11 | O=C1COC2CCCC2N1C1CCN([C@H]2CC[C@@H](COCC3CC3)CC2)CC1 (single isomer, unassigned) [Example 48] | > 40 | 2.2
12 | O=C1NC[C@H]2CCCC[C@@H]2N1C1CCN(C2CCC(COCC(F)F)CC2)CC1 (single isomer, unassigned) [Example 51] | > 40 | 3

Other lines, results leading:

Row | EC50 [1] [µM] | EC50 (cloned human M2 receptor) [µM] | SMILES
13 | > 40 | > 21 | CCOCC1CCC(N2CCC(N3C(=O)CO[C@H]4CCCC[C@@H]43)CC2)CC1 (single isomer, unassigned) [Example 13]
14 | > 40 | 2.8 | CCOCC1CCC(N2CCC(N3C(=O)CO[C@H]4CCCC[C@@H]43)CC2)CC1 (single isomer, unassigned) [Example 14]
15 |  | > 48 | CCCOC1CCC(N2CCC(N3C(=O)CO[C@H]4CCCC[C@@H]43)CC2)CC1 (single isomer, unassigned) [Example 17]
16 |  | 1 | O=C1CO[C@H]2CCCC[C@@H]2N1C1CCN(C2CCC(COCC3CC3)CC2)CC1 (single isomer, unassigned) [Example 22]
17 |  | > 1.2 | O=C1CO[C@H]2CCCC[C@@H]2N1C1CCN(C2CCC(COCC3CC3)CC2)CC1 (single isomer, unassigned) [Example 23]
18 | > 40 | > 5.7 | O=C1CO[C@H]2CCCC[C@@H]2N1C1CCN(C2CCC(COCCF)CC2)CC1 (single isomer, unassigned) [Example 24]
19 | > 40 | > 2.7 | O=C1CO[C@H]2CCCC[C@@H]2N1C1CCN(C2CCC(COCCF)CC2)CC1 (single isomer, unassigned) [Example 25]
20 | > 40 | > 3.6 | O=C1CO[C@H]2CCCC[C@@H]2N1C1CCN(C2CCC(COCC(F)F)CC2)CC1 (single isomer, unassigned) [Example 26]
21 | > 40 | 0.87 | O=C1CO[C@H]2CCCC[C@@H]2N1C1CCN(C2CCC(COCC(F)F)CC2)CC1 (single isomer, unassigned) [Example 27]
22 | > 40 | 5 | CCOCC1CC(N2CCC(N3C(=O)CO[C@H]4CCCC[C@@H]43)CC2)C1 (single isomer, unassigned) [Example 39]
23 |  | 4.4 | O=C1CO[C@H]2CCCC[C@@H]2N1C1CCN(C2CC(COCC3CCC3)C2)CC1 (single isomer, unassigned) [Example 40]
24 | > 10 | 1.6 | CCOCC1CCC(N2CCC(N3C(=O)CO[C@H]4CCCC[C@@H]43)CC2)C1 (single isomer, unassigned) [Example 44]
25 | > 40 | 6.1 | CCOCC1CCC(N2CCC(N3C(=O)CO[C@H]4CCCC[C@@H]43)CC2)C1 (single isomer, unassigned) [Example 45]
26 | > 2.1 | 1.6 | CCOC[C@H]1CC[C@@H](N2CCC(N3C(=O)CO[C@H]4CCCC[C@@H]43)CC2)C1 [Example 42, (4aS,8aS)-4-(1-((1R,3S)-3-(ethoxymethyl)cyclopentyl)piperidin-4-yl)hexahydro-2H-benzo[b][1,4]oxazin-3(4H)-one]
27 | > 40 | > 3.9 | CCOC[C@@H]1CC[C@H](N2CCC(N3C(=O)CO[C@H]4CCCC[C@@H]43)CC2)C1 [Example 43, (4aS,8aS)-4-(1-((1S,3R)-3-(ethoxymethyl)cyclopentyl)piperidin-4-yl)hexahydro-2H-benzo[b][1,4]oxazin-3(4H)-one]
